Where a SMILES comes first, the peptide text is derived from it.

In one experiment the test system is Botrytis cinerea. The experiment can be described thus: MIC of NCR13 and alanine scanning variants, 96-well plate / resazurin assay. In kind it is cell-based. Conditions: 48 h. On the procedure:
Antifungal activity of NCR13_AlaV1-V5 was assessed at different concentrations using a 2-fold dilution series of each peptide. Antifungal activity of each peptide was determined spectrophotometrically using the 96-well plate assay. Around 45 μL of each peptide at different concentrations was added to each well of the microtiter plate containing 45 μL of ˜[…] spore suspension. The quantitative fungal growth inhibition was determined by measuring the absorbance at 595 nm using a (Tecan Infinite M200 ProTecan Systems Inc., San Jose, CA) microplate reader after 48 h. The fungal cell viability was determined by the resazurin cell viability assay. After incubation of the pathogen/peptide mixture for 48 h, 10 μl of 0.1% resazurin solution was added to each well. After incubation of the mixture overnight, a change in the color of the resazurin dye from blue to pink or colorless indicated the presence of live fungal cells. The MIC for each peptide was the lowest concentration of each peptide at which no change in blue color occurred.
For orientation: Resazurin is reduced to fluorescent resorufin, in cell work by metabolically active cells.

The test system of another experiment is B. cinerea. As to the kind of experiment: Semi-in planta drop-inoculation antifungal assay on detached N. benthamiana leaves (gray mold). In kind it is in vivo, Botrytis cinerea on Nicotiana benthamiana. Conditions: B. cinerea spores, peptide 0.75, 1.5, 3 and 6 μM, 48 h.
A further experiment relates to Botrytis cinerea T-4. The experiment can be described thus: MIC determination, 96-well plate assay with resazurin cell viability readout. In kind it is cell-based. As for the experimental part:
The fungal strain of Botrytis cinerea T-4 was cultured on V8 agar plates. Fungal spores were harvested by flooding the fungal growth plates with sterile water. The spore suspension was filtered through two layers of Miracloth, centrifuged at 13,600 rpm for 1 min, washed, and re-suspended in low-salt Synthetic Fungal Medium (SFM) (U.S. Pat. No. 6,316,407, incorporated herein by reference in its entirety). The spore suspension was adjusted to the desired spore count using a hemocytometer.
Antifungal activity of NCR13_V7 (SEQ ID NO: 9) and NCR13_V9 (SEQ ID NO: 11) was assessed at different concentrations using a 2-fold dilution series of each peptide. Antifungal activity of each peptide was determined spectrophotometrically using the 96-well plate assay (Kereszt et al., Front. Plant Sci. 9, 1026 (2018)). Around 45 μL of each peptide at different concentrations was added to each well of the microtiter plate containing 45 μL of ˜10^5 spores/ml spore suspension. The quantitative fungal growth inhibition was determined by measuring the absorbance at 595 nm using a (Tecan Infinite M200 ProTecan Systems Inc., San Jose, CA) microplate reader after 48 h. The fungal cell viability was determined by the resazurin cell viability assay (Tiricz et al., Appl. Environ. Microbiol. 79, 6737-6746 (2013);. Balogh et al., Acta Microbiol. Immunol. Hung. 61, 229-239 (2014)). […]

As to “TKPCQSDKDCKKFACAAAAVPKCINGFCKCVR [NCR13_AlaV3]”, in the experiment with Botrytis cinerea, the “MIC (μM) Botrytis cinerea” value is on record as “Inactive”.
Same read-out and setting: under “TKPCQSDKDCAAAACRKPKVPKCINGFCKCVR [NCR13_AlaV2]” stands “Inactive”; under `CC[C@H](C)[C@H](NC(=O)[C@H](CS)NC(=O)[C@H](C)NC(=O)[C@H](C)NC(=O)[C@H](C)NC(=O)[C@H](CCCCN)NC(=O)[C@@H]1CCCN1C(=O)[C@H](CCCCN)NC(=O)[C@H](CCCNC(=N)N)NC(=O)[C@H](CS)NC(=O)[C@H](C)NC(=O)[C@H](Cc1ccccc1)NC(=O)[C@H](CCCCN)NC(=O)[C@H](CCCCN)NC(=O)[C@H](CS)NC(=O)[C@H](CC(=O)O)NC(=O)[C@H](CCCCN)NC(=O)[C@H](CC(=O)O)NC(=O)[C@H](CO)NC(=O)[C@H](CCC(N)=O)NC(=O)[C@H](CS)NC(=O)[C@@H]1CCCN1C(=O)[C@H](CCCCN)NC(=O)[C@@H](N)[C@@H](C)O)C(=O)N[C@@H](CC(N)=O)C(=O)NCC(=O)N[C@@H](Cc1ccccc1)C(=O)N[C@@H](CS)C(=O)N[C@@H](CCCCN)C(=O)N[C@@H](CS)C(=O)N[C@H](C(=O)N[C@@H](CCCNC(=N)N)C(=O)O)C(C)C` [NCR13_AlaV4] (H-TKPCQSDKDCKKFACRKPKAAACINGFCKCVR-OH; N-terminus and C-terminus assumed), “Inactive”.
`N=C(N)NCCC[C@H](NC(=O)[C@H](CS)NC(=O)[C@H](Cc1c[nH]c2ccccc12)NC(=O)[C@H](Cc1ccccc1)NC(=O)[C@H](CCCCN)NC(=O)[C@@H](N)CCCCN)C(=O)N[C@@H](CCCCN)C(=O)N1CCC[C@H]1C(=O)N[C@@H](CCCCN)C(=O)N[C@@H](Cc1c[nH]c2ccccc12)C(=O)N1CCC[C@H]1C(=O)N[C@@H](CCCCN)C(=O)N[C@@H](CS)C(N)=O` [NCR13_V9, KKFWCRKPKWPKC-NH2] (H-KKFWCRKPKWPKC-NH2; N-terminus assumed): the “reduction of lesion size” value in the experiment with B. cinerea is “reduced the lesion sizes greater than NCR13_V7”. Besides, in the experiment on Botrytis cinerea T-4 (B. cinerea in SFM), the “fold higher antifungal activity than NCR13_V7” value is 2 fold. Also, in the experiment with Botrytis cinerea T-4 (B. cinerea, low-salt Synthetic Fungal Medium (SFM), 48 h), the “MIC (μM) in SFM” value is 1.5 µM.

The record behind these values is patent US20260139005A1 (priority 2022, published 2026).
